SMILES strings stand for the structures. Non-standard residues stand in square brackets, D forms with d. Residues, ends and D or L forms follow the SMILES beside them. *: point of attachment. dPhe(4-Cl) = N[C@H](Cc1ccc(Cl)cc1)C(=O)O; Ahp = NCCCCCCC(=O)O; Bn = c1ccc(C*)cc1

One assay concerns the target T1, MC1-R (Mus musculus, UniProt Q01727).
T1 construct: B-16 mouse melanoma cells (containing MC1-R); endogenous in cells
The experiment in a line: Competitive inhibition assay using [I^125]-NDP-α-MSH, B-16 mouse melanoma cell membranes. Particulars: for inhibition at 1 µM: 1 μM test compound, read-out: Inhibition at 1 μM (NDP-α-MSH) In Normal System, MC1-R. Format: binding. A digest of the protocol: (§1)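 Tracer was 0.4 nM for MC3-R and MC5-R, 0.2 nM for MC4-R and 0.1 nM for MC1-R. Bound radioactivity was gamma-counted after filtration; values are triplicate means, with results below 0% reported as 0%.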

Assay [1] in a line: Penile erection induction in male rats. Format: in vivo. Particulars: rat. A digest of the protocol: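 Male Sprague-Dawley rats (200-250 g), groups of 4-8, dosed IV or ICV at various doses and observed individually for penile erections. Only statistically relevant increases over vehicle-control mean PEs count as induction; IV responses below 1.0 PEs/rat treated as equivocal, some retested ICV.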

Assay [2] is described as follows: ICV food intake and body weight change. Format: in vivo. Particulars: rat, 1 nmol, 24 hours. Put shortly:
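Rats fitted with intracerebroventricular cannulas and fed ad libitum got a single ICV dose of vehicle or compound (1-3 nmol). Food intake and body-weight change over the 24 h after dosing were compared with a 1-week vehicle baseline. Values at 48 h and 72 h were also recorded to follow return to baseline.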

Assay [3] is described as follows: IV and IP food intake and body weight change, rats. The class given is in vivo. As to conditions: rat, IV. Put shortly:
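Male Sprague-Dawley rats dosed IV (0.5-3, up to 10 mg/kg) or IP (0.5-10, up to 50 mg/kg); male C57BL/6 mice dosed IP. Change in food intake and body weight over 24 h post-dose versus 1-week vehicle baseline, with 48 and 72 h reversal checks.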

Another assay concerns the target MC3-R (Homo sapiens, UniProt P41968). Briefly: Competitive inhibition assay using [I^125]-NDP-α-MSH, hMC3-R membranes. Set-up: expressed in transfected cells. Format: binding. Particulars: 1 μM test compound; read-out: Inhibition at 1 μM (NDP-α-MSH) In Normal System, MC3-R. A digest of the protocol: as §1
A further assay addresses MC5-R (Homo sapiens, UniProt P33032). The experiment in a line: Competitive inhibition assay using [I^125]-NDP-α-MSH, hMC5-R membranes. Format: binding. Set-up: expressed in transfected cells. As to conditions: 1 μM test compound; read-out: Inhibition at 1 μM (NDP-α-MSH) In Normal System, MC5-R. Put shortly:
as §1

In assay [4] the target is T2, MC4-R (Homo sapiens, UniProt P32245). The experiment in a line: Competitive inhibition assay using [I^125]-NDP-α-MSH, hMC4-R membranes. Format: binding. Set-up: host or cells: TREx-293 (HEK-293 stably expressing Tet repressor). As to conditions: 1 μM test compound; read-out: Inhibition at 1 μM (NDP-α-MSH) In Normal System, MC4-R. Put shortly:
as §1

For assay [5], the target named is T2, MC4-R. The experiment in a line: cAMP agonist stimulation, low receptor density system (0.1 ng/mL doxycycline). As to conditions: 0.1 ng/mL doxycycline, low receptor density hMC4-R system; NDP-α-MSH maximal cAMP = 1.0.
For assay [6], the target named is T2, MC4-R. The experiment in a line: cAMP agonist stimulation, high receptor density system (10 ng/mL doxycycline). Particulars: for Efficacy/Intrinsic Activity: 10 ng/mL doxycycline, high receptor density hMC4-R system, NDP-α-MSH maximal cAMP = 1.0.

T1 sequence (Q01727 whole entry): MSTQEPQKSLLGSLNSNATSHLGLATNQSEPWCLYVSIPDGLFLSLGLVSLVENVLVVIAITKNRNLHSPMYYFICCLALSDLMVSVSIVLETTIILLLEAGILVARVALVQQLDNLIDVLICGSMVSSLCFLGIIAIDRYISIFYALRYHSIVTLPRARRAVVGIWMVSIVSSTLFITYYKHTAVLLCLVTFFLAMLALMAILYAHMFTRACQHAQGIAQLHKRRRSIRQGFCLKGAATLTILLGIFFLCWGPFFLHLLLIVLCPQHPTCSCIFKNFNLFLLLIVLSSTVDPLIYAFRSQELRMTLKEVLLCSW
T2 sequence (P32245 whole entry): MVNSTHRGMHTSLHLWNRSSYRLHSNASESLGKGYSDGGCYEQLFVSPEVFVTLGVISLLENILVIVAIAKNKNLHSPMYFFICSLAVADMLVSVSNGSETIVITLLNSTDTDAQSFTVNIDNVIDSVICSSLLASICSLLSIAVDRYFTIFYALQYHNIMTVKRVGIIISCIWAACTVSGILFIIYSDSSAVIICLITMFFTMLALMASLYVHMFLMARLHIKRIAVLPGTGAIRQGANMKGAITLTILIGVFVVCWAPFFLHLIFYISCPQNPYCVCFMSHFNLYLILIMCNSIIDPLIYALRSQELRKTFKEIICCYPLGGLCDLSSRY
Chain of MC5-R (P33032 whole entry): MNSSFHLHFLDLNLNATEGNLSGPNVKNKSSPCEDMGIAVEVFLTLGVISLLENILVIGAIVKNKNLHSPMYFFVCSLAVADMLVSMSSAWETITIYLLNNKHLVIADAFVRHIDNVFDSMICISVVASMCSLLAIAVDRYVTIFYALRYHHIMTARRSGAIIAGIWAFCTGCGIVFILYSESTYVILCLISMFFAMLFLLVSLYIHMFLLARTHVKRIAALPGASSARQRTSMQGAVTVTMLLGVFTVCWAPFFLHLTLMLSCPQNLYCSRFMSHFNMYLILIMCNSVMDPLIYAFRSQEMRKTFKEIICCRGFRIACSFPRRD
Chain of MC3-R (P41968 whole entry): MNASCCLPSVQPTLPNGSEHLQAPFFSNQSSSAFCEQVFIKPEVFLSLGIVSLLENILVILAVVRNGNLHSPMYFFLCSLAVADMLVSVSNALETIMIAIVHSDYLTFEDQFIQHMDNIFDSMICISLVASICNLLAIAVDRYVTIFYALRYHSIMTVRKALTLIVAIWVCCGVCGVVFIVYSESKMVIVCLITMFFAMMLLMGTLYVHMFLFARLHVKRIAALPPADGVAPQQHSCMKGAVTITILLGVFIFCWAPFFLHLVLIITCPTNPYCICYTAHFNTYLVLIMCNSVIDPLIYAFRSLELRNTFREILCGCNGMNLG

The inhibition is the share of the control response that was lost under treatment. A word on the Ki: it is a measure of affinity in units of concentration, obtained from inhibition or displacement. The term EC50 denotes the concentration that produces a half-maximal response. On to `N=C(N)NCCC[C@H]1CN(CCc2ccc3ccccc3c2)CCN1C(=O)[C@H](N)Cc1ccc(Cl)cc1Cl` [Example 17, N-{3-[(S)-1-[(R)-2-Amino-3-(2,4-dichloro-phenyl)-propionyl]-4-(2-naphthalen-2-yl-ethyl)-piperazin-2-yl]-propyl}-guanidine], for which the inhibition at 1 µM came to 6% at MC1-R, 87% on MC3-R, 75% on MC5-R and 99% at MC4-R [4]. At MC1-R (read-out: Ki (nM) (NDP-α-MSH) In Normal System, MC1-R), the inhibitory constant (Ki) was found to be 1200 nM. For the same molecule, in assay [1] (ICV), the “Penile Erection ICV” value is “No”. Besides, the penile erection response result in assay [1] (ICV, 0.3 to 3 nmole) is recorded as “no penile erection response”; in assay [1] (IV, 0.3 to 30 μg/kg), “no penile erection response”. Further, in [1] (IV), the “Penile Erection IV” value was “No”. The “decrease in food intake” value in [2] is given as 32%. The “maximal decrease in food intake” value in assay [3] (10 mg/kg, 24 hours) is on record as 91%. In addition, the entries for the “Efficacy/Intrinsic Activity” value on MC4-R [5] and on MC4-R [6] were “None” and 0.67, respectively. Further, at MC4-R [6], a half-maximal effect (EC50) was put at 847 nM.

In the case of `N=C(N)NCCC[C@H](NC(=O)[C@@H](Cc1ccc(Cl)cc1)NC(=O)[C@H](COCc1ccccc1)NC(=O)CCCCCCN)C(=O)N[C@@H](Cc1c[nH]c2ccccc12)C(=O)N[C@@H](CC(=O)O)C(N)=O` [Example 13, NH2—(CH2)6—C(═O)-Ser(Bzl)-D-Phe(4-Cl)-Arg-Trp-Asp-NH2] (H-[Ahp]S(Bn)[dPhe(4-Cl)]RWD-NH2), the inhibition at 1 µM on MC1-R is 35%; at MC3-R, 73%; at MC5-R, 48%; on MC4-R [4] it was 98%. Also, the “Penile Erection IV” value in assay [1] (IV) was “No”. In addition, in [1] (IV), the penile erection response entry was “no penile erections”. The “decrease in body weight” value in assay [2] is 2.1%; in [3] (dose not stated, 24 hours) it was 1%. In addition, the “decrease in food intake” value in assay [2] amounted to 25.7%. For the same molecule, the “24 hour decrease in food intake” value in [3] (dose not stated) was determined as 6%. Besides, the “Efficacy/Intrinsic Activity” value at MC4-R [5] is recorded as “None”; at MC4-R [6] it was 0.72. In addition, the EC50 on MC4-R [6] came to 34 nM.

(Values after patent publication US20090081197A1 (Palatin Technologies, Inc., priority 2007, published 2009).)
